This is an account of results in ChEMBL document CHEMBL4033700, “From a novel HTS hit to potent, selective, and orally bioavailable KDM5 inhibitors” (Bioorg Med Chem Lett, 2017).

In data set [1] the target is Lysine-specific demethylase 5C (Homo sapiens, UniProt P41229). The experiment in a line: Inhibition of recombinant human N-terminal FLAG-tagged KDM5C expressed in baculovirus infected Sf9 insect cells using H3K4me3 peptide as substrate after 30 to 45 mins by TR-FRET assay.
In data set [2] the target is Lysine-specific demethylase 6A (Homo sapiens, UniProt O15550). Briefly: Inhibition of recombinant human N-terminal FLAG-tagged KDM6A expressed in baculovirus infected Sf9 insect cells using H3K27me3 peptide as substrate after 30 to 45 mins by TR-FRET assay. Background: Time-resolved FRET reads energy transfer from a long-lived donor to a nearby acceptor.
A short description of data set [3]: Ratio of unbound Cmax in CD-1 mouse to EC50 for KDM5A in human PC9 cells.
For data set [4], the target named is Lysine-specific demethylase 3B (Homo sapiens, UniProt Q7LBC6). Briefly: Inhibition of recombinant human N-terminal FLAG-tagged KDM3B expressed in baculovirus infected Sf9 insect cells using H3K9me1 peptide as substrate after 30 to 45 mins by TR-FRET assay.
For data set [5], the target named is T1, Lysine-specific demethylase 4C (Homo sapiens, UniProt Q9H3R0).
T1 sequence (Q9H3R0 whole entry): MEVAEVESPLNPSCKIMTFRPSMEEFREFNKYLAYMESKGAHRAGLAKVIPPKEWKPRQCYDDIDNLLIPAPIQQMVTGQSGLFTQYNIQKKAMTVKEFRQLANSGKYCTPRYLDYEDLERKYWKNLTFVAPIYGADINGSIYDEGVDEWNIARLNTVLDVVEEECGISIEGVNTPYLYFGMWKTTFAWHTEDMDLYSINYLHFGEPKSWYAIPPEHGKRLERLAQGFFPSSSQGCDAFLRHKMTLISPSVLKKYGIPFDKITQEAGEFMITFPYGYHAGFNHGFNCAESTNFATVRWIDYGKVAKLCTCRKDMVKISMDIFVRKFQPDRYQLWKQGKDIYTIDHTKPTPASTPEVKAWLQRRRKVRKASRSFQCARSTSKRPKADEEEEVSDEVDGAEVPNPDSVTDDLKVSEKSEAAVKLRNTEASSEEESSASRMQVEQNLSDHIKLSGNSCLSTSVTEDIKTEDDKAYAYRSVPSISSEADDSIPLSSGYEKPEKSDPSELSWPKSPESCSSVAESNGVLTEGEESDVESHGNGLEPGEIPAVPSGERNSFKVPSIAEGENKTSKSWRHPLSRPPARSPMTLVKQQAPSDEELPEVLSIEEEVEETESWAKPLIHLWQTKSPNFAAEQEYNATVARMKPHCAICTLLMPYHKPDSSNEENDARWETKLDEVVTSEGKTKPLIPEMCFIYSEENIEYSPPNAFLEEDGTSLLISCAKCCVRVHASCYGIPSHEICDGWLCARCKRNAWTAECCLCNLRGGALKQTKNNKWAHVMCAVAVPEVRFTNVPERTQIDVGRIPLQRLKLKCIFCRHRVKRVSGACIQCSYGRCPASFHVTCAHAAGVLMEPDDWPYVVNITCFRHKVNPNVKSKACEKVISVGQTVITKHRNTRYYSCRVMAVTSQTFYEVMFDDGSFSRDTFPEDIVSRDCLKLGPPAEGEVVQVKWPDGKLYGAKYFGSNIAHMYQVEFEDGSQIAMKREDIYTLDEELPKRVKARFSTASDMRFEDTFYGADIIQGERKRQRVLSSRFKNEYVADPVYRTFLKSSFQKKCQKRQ
Briefly: Inhibition of recombinant human N-terminal FLAG-tagged KDM4C expressed in baculovirus infected Sf9 insect cells using H3K9me3 peptide as substrate after 30 to 45 mins by TR-FRET assay.

Data set [6] is described as follows: Hepatic clearance in mouse hepatocytes. The format is ADME, cell-based, Hepatocyte.
A short description of data set [7]: Kinetic solubility of the compound. It is filed as physicochemical. The following applies: read-out: Kinetic_solubility.
Data set [8] is described as follows: Lipophilicity, log D of the compound at pH 7.4. It is filed as physicochemical. The following applies: buffer.
Data set [9] in a line: Hepatic clearance in rat liver microsomes. It is filed as ADME, microsome.
Data set [10] concerns the target Lysine-specific histone demethylase 1A (Homo sapiens, UniProt O60341). Briefly: Inhibition of KDM1A (unknown origin).
Data set [11] addresses Lysine-specific demethylase 5A (Homo sapiens, UniProt P29375). Briefly: Inhibition of KDM5A in human PC9 cells assessed as increase in H3K4me3 level after 5 days by mass-spectrometric method. As to conditions: read-out: EC50. It is filed as cell-based.

Values after ≈ are worked out from the molar mass of the structure shown.

Chain of Lysine-specific demethylase 3B (Q7LBC6 whole entry): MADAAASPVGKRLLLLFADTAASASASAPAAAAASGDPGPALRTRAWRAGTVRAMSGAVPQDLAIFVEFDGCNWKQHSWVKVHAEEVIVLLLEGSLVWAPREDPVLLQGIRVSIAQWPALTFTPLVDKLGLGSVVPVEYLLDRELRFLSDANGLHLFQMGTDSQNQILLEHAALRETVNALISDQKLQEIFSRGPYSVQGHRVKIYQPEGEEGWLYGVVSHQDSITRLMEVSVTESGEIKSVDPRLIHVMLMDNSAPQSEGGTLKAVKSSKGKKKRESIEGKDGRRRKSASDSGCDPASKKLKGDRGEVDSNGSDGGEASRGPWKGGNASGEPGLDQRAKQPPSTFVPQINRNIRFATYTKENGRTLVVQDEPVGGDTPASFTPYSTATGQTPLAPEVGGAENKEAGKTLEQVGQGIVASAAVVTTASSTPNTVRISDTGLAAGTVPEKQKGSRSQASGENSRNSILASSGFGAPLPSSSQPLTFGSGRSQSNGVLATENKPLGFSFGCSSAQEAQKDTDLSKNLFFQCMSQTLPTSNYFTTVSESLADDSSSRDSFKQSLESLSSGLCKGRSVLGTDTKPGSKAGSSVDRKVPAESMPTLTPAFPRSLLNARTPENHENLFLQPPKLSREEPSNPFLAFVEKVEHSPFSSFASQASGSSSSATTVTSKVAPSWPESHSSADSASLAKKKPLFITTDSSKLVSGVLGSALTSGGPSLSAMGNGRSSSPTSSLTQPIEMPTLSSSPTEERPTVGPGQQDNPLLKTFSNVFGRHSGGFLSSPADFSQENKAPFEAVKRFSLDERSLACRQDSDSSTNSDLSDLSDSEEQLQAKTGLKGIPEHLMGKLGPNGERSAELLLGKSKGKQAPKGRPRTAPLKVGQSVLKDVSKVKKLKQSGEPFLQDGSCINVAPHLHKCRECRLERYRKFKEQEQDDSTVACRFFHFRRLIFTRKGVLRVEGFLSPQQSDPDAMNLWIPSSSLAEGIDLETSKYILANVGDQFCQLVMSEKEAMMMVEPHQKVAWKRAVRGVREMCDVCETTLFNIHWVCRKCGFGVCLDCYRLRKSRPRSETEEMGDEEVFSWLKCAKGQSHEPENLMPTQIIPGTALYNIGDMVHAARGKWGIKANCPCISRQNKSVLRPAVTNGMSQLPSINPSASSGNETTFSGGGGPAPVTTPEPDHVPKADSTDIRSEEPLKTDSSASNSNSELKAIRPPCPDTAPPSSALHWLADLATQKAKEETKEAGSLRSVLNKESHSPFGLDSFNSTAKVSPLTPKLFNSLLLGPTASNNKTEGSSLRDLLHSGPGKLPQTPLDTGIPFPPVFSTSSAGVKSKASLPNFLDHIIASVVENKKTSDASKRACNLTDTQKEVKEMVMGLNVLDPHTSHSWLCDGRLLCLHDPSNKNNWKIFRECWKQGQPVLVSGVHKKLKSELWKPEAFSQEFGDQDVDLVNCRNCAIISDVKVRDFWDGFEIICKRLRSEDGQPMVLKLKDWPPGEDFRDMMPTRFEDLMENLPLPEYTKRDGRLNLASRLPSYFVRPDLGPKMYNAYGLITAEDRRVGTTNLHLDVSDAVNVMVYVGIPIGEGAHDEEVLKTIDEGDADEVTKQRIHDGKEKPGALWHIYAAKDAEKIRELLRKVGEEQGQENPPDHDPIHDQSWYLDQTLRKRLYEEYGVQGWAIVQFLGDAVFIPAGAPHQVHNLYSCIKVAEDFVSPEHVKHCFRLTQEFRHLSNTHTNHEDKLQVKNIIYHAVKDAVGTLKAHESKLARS
Chain of Lysine-specific demethylase 5C (P41229 whole entry): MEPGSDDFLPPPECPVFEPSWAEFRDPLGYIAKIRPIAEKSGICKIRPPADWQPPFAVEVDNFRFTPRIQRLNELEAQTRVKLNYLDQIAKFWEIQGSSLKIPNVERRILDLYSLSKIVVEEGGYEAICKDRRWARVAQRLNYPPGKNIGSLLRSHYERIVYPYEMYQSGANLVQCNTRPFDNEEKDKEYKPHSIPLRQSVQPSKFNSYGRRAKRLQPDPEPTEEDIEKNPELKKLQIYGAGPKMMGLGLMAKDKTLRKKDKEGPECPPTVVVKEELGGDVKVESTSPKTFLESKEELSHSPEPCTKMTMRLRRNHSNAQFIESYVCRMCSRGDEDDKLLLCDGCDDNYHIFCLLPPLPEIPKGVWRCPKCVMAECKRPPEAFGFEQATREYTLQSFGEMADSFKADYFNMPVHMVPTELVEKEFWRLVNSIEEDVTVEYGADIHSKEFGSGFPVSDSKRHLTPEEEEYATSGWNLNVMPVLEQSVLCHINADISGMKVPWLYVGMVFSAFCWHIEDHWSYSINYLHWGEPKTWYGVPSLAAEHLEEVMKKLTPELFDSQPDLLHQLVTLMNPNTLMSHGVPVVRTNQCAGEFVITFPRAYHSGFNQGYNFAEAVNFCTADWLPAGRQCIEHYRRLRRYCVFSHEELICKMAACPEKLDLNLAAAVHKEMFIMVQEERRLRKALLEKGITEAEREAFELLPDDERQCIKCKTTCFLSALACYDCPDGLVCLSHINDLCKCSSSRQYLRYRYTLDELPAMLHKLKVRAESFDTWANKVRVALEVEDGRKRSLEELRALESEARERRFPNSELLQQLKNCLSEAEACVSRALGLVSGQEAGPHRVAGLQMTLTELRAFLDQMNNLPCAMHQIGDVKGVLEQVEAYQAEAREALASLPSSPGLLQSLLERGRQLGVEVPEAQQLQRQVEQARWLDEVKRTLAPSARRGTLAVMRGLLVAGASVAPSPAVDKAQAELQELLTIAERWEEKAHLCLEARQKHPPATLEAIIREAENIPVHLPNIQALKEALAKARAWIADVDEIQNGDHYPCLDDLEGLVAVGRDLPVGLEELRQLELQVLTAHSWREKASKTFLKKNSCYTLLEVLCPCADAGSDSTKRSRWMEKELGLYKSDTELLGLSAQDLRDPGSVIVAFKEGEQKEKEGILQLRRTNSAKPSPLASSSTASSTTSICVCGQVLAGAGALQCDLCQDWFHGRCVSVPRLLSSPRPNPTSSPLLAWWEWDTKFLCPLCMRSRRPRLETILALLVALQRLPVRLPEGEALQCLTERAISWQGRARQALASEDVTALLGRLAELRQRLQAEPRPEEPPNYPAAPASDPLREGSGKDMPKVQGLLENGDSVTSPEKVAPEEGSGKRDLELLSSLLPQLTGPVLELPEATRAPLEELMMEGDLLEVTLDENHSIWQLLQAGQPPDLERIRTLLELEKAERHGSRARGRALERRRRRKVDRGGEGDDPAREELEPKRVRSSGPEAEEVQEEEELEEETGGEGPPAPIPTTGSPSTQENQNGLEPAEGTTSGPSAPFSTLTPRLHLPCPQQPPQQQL
Chain of Lysine-specific demethylase 5A (P29375 whole entry): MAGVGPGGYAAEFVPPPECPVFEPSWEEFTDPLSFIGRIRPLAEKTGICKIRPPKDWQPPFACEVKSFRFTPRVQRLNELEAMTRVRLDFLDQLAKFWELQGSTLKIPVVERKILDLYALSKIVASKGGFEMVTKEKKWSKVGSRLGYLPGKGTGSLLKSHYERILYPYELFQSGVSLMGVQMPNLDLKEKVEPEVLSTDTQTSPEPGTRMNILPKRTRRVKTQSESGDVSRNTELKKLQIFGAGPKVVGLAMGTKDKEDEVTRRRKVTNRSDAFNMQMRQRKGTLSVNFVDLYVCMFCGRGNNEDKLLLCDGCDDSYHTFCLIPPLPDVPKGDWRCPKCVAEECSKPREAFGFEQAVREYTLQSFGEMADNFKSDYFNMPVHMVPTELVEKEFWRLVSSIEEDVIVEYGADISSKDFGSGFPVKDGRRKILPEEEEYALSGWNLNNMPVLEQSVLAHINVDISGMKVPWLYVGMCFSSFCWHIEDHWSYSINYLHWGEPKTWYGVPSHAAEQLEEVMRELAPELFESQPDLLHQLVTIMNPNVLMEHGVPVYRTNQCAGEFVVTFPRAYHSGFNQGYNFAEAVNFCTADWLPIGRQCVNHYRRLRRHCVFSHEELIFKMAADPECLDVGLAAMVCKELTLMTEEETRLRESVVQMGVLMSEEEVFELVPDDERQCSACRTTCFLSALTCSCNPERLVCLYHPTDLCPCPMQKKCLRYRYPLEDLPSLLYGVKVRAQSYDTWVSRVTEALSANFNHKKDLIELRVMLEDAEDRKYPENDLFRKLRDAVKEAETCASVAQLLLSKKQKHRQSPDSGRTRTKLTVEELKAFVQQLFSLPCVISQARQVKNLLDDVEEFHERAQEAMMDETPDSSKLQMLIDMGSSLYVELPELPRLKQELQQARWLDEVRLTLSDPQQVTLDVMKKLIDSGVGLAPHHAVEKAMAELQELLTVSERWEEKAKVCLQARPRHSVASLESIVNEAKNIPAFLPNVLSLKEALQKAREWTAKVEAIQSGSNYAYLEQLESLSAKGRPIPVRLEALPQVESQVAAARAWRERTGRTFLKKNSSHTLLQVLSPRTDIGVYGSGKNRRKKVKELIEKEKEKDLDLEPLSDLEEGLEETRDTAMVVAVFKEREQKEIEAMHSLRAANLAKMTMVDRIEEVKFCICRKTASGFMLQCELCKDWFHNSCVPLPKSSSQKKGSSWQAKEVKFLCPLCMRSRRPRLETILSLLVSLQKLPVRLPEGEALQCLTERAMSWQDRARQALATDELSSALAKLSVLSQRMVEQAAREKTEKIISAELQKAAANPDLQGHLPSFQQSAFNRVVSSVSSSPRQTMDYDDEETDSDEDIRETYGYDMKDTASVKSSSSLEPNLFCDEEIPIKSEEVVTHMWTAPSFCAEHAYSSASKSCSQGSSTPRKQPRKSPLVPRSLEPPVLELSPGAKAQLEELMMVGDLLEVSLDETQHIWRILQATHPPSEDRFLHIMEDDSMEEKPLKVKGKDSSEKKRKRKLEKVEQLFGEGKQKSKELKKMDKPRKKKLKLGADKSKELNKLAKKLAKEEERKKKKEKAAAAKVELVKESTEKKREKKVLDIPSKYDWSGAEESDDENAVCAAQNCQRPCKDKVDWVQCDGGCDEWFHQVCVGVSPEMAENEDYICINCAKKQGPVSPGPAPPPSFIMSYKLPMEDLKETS

In general, IC50 refers to the concentration at which inhibition is half-maximal. For orientation: logD means lipophilicity at a set pH, counting ionised and neutral species. Read a high logD as higher lipophilicity. For orientation: EC50 means the concentration at which the effect is half-maximal. For `CC(C)c1cc(C(=O)N2CC[C@@H](NC(=O)C3CC3)C2)[nH]n1`, the IC50 in data set [1] was 0.055 µM; in data set [2], more than 25 µM; in data set [4] it was more than 25 µM; in data set [5], 4.1 µM; in [10], more than 25 µM. In [3], the Ratio was found to be 2. Further, the values for the CLhep predicted in data set [6] and in data set [9] were 0.036 L/h/kg and 0.78 L/h/kg, respectively. In addition, in data set [7], the solubility kinetic is 112 µM (≈ 32.5 µg/mL). Further, the logD in data set [8] stood at 1.3. Besides, the EC50 in data set [11] worked out at 0.96 µM.
